Test results reported in patent US10538498B2, “1,3,4-oxadiazole sulfonamide derivative compounds as histone deacetylase 6 inhibitor, and the pharmaceutical composition comprising the same” (Chong Kun Dang Pharmaceutical Corp., priority 2015, dated 2020).

Molecular target: T1, human recombinant HDAC6 (Homo sapiens, UniProt Q9UBN7)
T1 construct: purchased Calbiochem 382180
T1 sequence (Q9UBN7 1-1215): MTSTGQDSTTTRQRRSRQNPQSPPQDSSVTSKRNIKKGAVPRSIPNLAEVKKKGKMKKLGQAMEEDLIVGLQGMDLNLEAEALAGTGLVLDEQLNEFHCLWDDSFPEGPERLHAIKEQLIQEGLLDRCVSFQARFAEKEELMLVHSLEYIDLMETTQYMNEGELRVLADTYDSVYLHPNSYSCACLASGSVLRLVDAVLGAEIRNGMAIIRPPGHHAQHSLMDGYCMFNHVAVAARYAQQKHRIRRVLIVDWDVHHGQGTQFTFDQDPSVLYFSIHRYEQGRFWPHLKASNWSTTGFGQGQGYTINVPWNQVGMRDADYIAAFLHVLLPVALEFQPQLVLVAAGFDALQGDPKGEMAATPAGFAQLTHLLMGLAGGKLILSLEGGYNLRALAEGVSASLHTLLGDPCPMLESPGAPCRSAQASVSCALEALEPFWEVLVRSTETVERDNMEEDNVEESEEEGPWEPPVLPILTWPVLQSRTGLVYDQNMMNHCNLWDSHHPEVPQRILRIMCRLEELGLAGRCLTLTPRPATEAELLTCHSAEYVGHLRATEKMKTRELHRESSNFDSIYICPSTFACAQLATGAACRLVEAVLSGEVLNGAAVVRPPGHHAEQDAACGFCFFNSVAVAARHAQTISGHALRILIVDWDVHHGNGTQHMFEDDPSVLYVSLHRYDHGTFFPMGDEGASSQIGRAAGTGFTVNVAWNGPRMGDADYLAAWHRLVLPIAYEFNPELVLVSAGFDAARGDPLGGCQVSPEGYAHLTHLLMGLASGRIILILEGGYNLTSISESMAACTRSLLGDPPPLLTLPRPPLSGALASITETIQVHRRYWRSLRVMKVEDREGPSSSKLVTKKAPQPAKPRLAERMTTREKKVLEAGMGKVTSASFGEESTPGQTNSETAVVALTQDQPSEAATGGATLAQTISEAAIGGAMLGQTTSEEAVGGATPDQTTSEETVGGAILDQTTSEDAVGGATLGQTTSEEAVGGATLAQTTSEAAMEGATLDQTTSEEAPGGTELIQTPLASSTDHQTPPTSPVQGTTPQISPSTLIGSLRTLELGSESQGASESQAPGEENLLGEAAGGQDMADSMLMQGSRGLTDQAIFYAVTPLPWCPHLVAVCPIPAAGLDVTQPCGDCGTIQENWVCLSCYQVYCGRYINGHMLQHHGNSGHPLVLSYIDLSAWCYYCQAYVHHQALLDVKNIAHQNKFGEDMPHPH
Assay: HDAC6 enzyme activity inhibition assay (HDAC Fluorimetric Drug Discovery Kit)
Type: biochemical
Details: for HDAC6 selectivity (fold): HDAC1 vs HDAC6; for IC50: same protocol as the HDAC1 enzyme activity test
Summary of the method: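 5-fold compound dilutions + 0.3 μg enzyme + 10 μM Fluor de Lys-SIRT1 substrate, 60 min, 30° C; Developer II 30 min; fluorescence Ex 360/Em 460; IC50 by curve fit.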

Compound	HDAC6 selectivity (fold)	IC50
CS(=O)(=O)N(Cc1ncc(-c2nnc(C(F)F)o2)cn1)c1ccccc1 [Compound 11564, N-((5-(5-(difluoromethyl)-1,3,4-oxadiazol-2-yl)pyrimidin-2-yl)methyl)-N-phenylmethanesulfonamide]	4762 fold	21 nM
CS(=O)(=O)N(Cc1ccc(-c2nnc(C(F)F)o2)nn1)c1ccccc1 [Compound 11566, N-((6-(5-(difluoromethyl)-1,3,4-oxadiazol-2-yl)pyridazin-3-yl)methyl)-N-phenylmethanesulfonamide]	1124 fold	89 nM
CS(=O)(=O)N1CC(N2CCN(CCS(=O)(=O)N(Cc3ccc(-c4nnc(C(F)F)o4)cc3F)c3ccc(F)c(Cl)c3)CC2)C1 [Compound 11582, N-(3-chloro-4-fluorophenyl)-N-(4-(5-(difluoromethyl)-1,3,4-oxadiazol-2-yl)-2-fluorobenzyl)-2-(4-(1-(methylsulfonyl)azetidin-3-yl)piperazin-1-yl)ethane-1-sulfonamide]	4348 fold	23 nM
O=S(=O)(CCN1CCN(C2COC2)CC1)N(Cc1ccc(-c2nnc(C(F)F)o2)cc1F)c1ccc(F)c(Cl)c1 [Compound 11583, N-(3-chloro-4-fluorophenyl)-N-(4-(5-(difluoromethyl)-1,3,4-oxadiazol-2-yl)-2-fluorobenzyl)-2-(4-(oxetan-3-yl)piperazin-1-yl)ethane-1-sulfonamide]	4348 fold	23 nM
O=S(=O)(CCCN1CCOCC1)N(Cc1ccc(-c2nnc(C(F)F)o2)cc1F)c1ccccc1 [Compound 11588, N-(4-(5-(difluoromethyl)-1,3,4-oxadiazol-2-yl)-2-fluorobenzyl)-3-morpholino-N-phenylpropane-1-sulfonamide]	2273 fold	44 nM
CN1CCN(CCCS(=O)(=O)N(Cc2ccc(-c3nnc(C(F)F)o3)cc2F)c2ccccc2)CC1 [Compound 11589, N-(4-(5-(difluoromethyl)-1,3,4-oxadiazol-2-yl)-2-fluorobenzyl)-3-(4-methylpiperazin-1-yl)-N-phenylpropane-1-sulfonamide]	2326 fold	43 nM
CS(=O)(=O)N(Cc1cnc(-c2nnc(C(F)(F)F)o2)nc1)c1ccccc1 [Compound 11606, N-phenyl-N-((2-(5-(trifluoromethyl)-1,3,4-oxadiazol-2-yl)pyrimidin-5-yl)methyl)methanesulfonamide]	66 fold	1520 nM
O=S(=O)(C1CCN(C2COC2)CC1)N(Cc1ccc(-c2nnc(C(F)F)o2)cc1F)c1ccccc1 [Compound 11625, N-(4-(5-(difluoromethyl)-1,3,4-oxadiazol-2-yl)-2-fluorobenzyl)-1-(oxetan-3-yl)-N-phenylpiperidine-4-sulfonamide]	719 fold	139 nM
CS(=O)(=O)N(Cc1ccc(-c2nnc(C(F)F)o2)cc1)c1cccnc1 [Compound 11628, N-(4-(5-(difluoromethyl)-1,3,4-oxadiazol-2-yl)benzyl)-N-(pyridin-3-yl)methanesulfonamide]	2083 fold	48 nM
O=S(=O)(CCN1CCCCC1)N(Cc1ccc(-c2nnc(C(F)F)o2)cc1)c1ccccc1 [Compound 11629, N-(4-(5-(difluoromethyl)-1,3,4-oxadiazol-2-yl)benzyl)-N-phenyl-2-(piperidin-1-yl)ethane-1-sulfonamide]	1041 fold	96 nM
CN1CCN(CCS(=O)(=O)N(Cc2ccc(-c3nnc(C(F)F)o3)cc2)c2ccccc2)CC1 [Compound 11630, N-(4-(5-(difluoromethyl)-1,3,4-oxadiazol-2-yl)benzyl)-2-(4-methylpiperazin-1-yl)-N-phenylethane-1-sulfonamide]	3225 fold	31 nM
CC(C)(C)OC(=O)N1CCN(CCS(=O)(=O)N(Cc2ccc(-c3nnc(C(F)F)o3)cc2)c2ccccc2)CC1 [Compound 11631, tert-butyl 4-(2-(N-(4-(5-(difluoromethyl)-1,3,4-oxadiazol-2-yl)benzyl)-N-phenylsulfamoyl)ethyl)piperazine-1-carboxylate]	436 fold	229 nM
C[C@@H]1CN(CCS(=O)(=O)N(Cc2ccc(-c3nnc(C(F)F)o3)cc2)c2ccccc2)C[C@H](C)N1 [Compound 11632, N-(4-(5-(difluoromethyl)-1,3,4-oxadiazol-2-yl)benzyl)-2-((3S,5R)-3,5-dimethylpiperazin-1-yl)-N-phenylethane-1-sulfonamide]	1587 fold	63 nM
CC(=O)N1CCN(CCS(=O)(=O)N(Cc2ccc(-c3nnc(C(F)F)o3)cc2)c2ccccc2)CC1 [Compound 11633, 2-(4-acetylpiperazin-1-yl)-N-(4-(5-(difluoromethyl)-1,3,4-oxadiazol-2-yl)benzyl)-N-phenylethane-1-sulfonamide]	2173 fold	46 nM
CS(=O)(=O)N1CCN(CCS(=O)(=O)N(Cc2ccc(-c3nnc(C(F)F)o3)cc2)c2ccccc2)CC1 [Compound 11634, N-(4-(5-(difluoromethyl)-1,3,4-oxadiazol-2-yl)benzyl)-2-(4-(methylsulfonyl)piperazin-1-yl)-N-phenylethane-1-sulfonamide]	2083 fold	48 nM
CS(=O)(=O)N(Cc1ccc(-c2nnc(C(F)F)o2)cc1)c1cncnc1 [Compound 11636, N-(4-(5-(difluoromethyl)-1,3,4-oxadiazol-2-yl)benzyl)-N-(pyrimidin-5-yl)methanesulfonamide]	862 fold	116 nM
O=S(=O)(CCN1CCOCC1)N(Cc1ccc(-c2nnc(C(F)F)o2)cc1)c1ccccc1 [Compound 11655, N-(4-(5-(difluoromethyl)-1,3,4-oxadiazol-2-yl)benzyl)-2-morpholino-N-phenylethanesulfonamide]	1724 fold	58 nM
CC(=O)N1CCN(CCCS(=O)(=O)N(Cc2ccc(-c3nnc(C(F)F)o3)cc2)c2ccccc2)CC1 [Compound 11656, 3-(4-acetylpiperazin-1-yl)-N-(4-(5-(difluoromethyl)-1,3,4-oxadiazol-2-yl)benzyl)-N-phenylpropane-1-sulfonamide]	1587 fold	63 nM
O=S(=O)(CCCN1CCCCC1)N(Cc1ccc(-c2nnc(C(F)F)o2)cc1)c1ccccc1 [Compound 11657, N-(4-(5-(difluoromethyl)-1,3,4-oxadiazol-2-yl)benzyl)-N-phenyl-3-(piperidin-1-yl)propane-1-sulfonamide]	1219 fold	82 nM
CN1CCN(CCCS(=O)(=O)N(Cc2ccc(-c3nnc(C(F)F)o3)cc2)c2ccccc2)CC1 [Compound 11658, N-(4-(5-(difluoromethyl)-1,3,4-oxadiazol-2-yl)benzyl)-3-(4-methylpiperazin-1-yl)-N-phenylpropane-1-sulfonamide]	2500 fold	40 nM
O=S(=O)(CCN1CCN(Cc2ccccc2)CC1)N(Cc1ccc(-c2nnc(C(F)F)o2)cc1)c1ccccc1 [Compound 11663, 2-(4-benzylpiperazin-1-yl)-N-(4-(5-(difluoromethyl)-1,3,4-oxadiazol-2-yl)benzyl)-N-phenylethanesulfonamide]	578 fold	173 nM
C[C@@H]1CN(CCCS(=O)(=O)N(Cc2ccc(-c3nnc(C(F)F)o3)cc2)c2ccccc2)C[C@H](C)N1C [Compound 11665, N-(4-(5-(difluoromethyl)-1,3,4-oxadiazol-2-yl)benzyl)-N-phenyl-3-((3R,5S)-3,4,5-trimethylpiperazin-1-yl)propane-1-sulfonamide]	5263 fold	19 nM
CS(=O)(=O)N(Cc1ccc(-c2nnc(C(F)F)o2)cc1)CC12CC3CC(CC(C3)C1)C2 [Compound 11668, N-((adamantan-1-yl)methyl)-N-(4-(5-(difluoromethyl)-1,3,4-oxadiazol-2-yl)benzyl)methanesulfonamide]	724 fold	138 nM
